According to patent US6410558B1, “Fungicides for the control of take-all disease of plants” (Monsanto Technology LLC, priority 1991, dated 2002):

Legend:
[1] = system: Ggt; assay: In vivo Assay: control of Ggt on wheat grown in pots of Ggt-infested soil, root disease rating; parameters: species or system Gaeumannomyces graminis var. tritici; settings: Gaeumannomyces graminis, 672 h; 0.5 mg active ingredient per pot; 'Bergen' or 'Anza' wheat in Ggt-infested soil; after four weeks; vs untreated control; read-out: In vivo, percent disease control
How it was run: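 Wheat ('Bergen' or 'Anza') seeds in soil infested with Ggt-colonised oats (4% v/v) treated at 0.5 mg active ingredient per pot in acetone/water with Tween 20; five pots per treatment. After four weeks, seminal roots rated 0–5; trimmed mean of three replicates converted to percent disease control versus untreated.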

[2] = system: Gaeumannomyces graminis var. tritici (Ggt); assay: In vitro Assay: mycelial growth of Ggt on minimal media agar plates containing test compound; type: cell-based; settings: Gaeumannomyces graminis, dark, 19-20° C., 4 to 5 days, diameter of mycelial growth; for inhibition at 0.1 ppm: 0.1 ppm in minimal media agar, read-out: In vitro (ppm) 0.1, Percent Inhibition; for inhibition at 1 ppm: 1 ppm in minimal media agar, read-out: In vitro (ppm) 1, Percent Inhibition; for inhibition at 10 ppm: 10 ppm in minimal media agar, read-out: In vitro (ppm) 10, Percent Inhibition
How it was run: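 Ggt mycelial diameter read after 4 to 5 days in darkness at 19-20° C, from three 4-mm plugs placed on Czapek Dox minimal agar containing test compound delivered in acetone. Inhibition expressed as percent versus untreated plates, plug size (4 mm) subtracted from both.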

Row | Structure (SMILES) | pest or weed control at 0.5 mg/pot [1] [%] | inhibition at 0.1 ppm [2] [%] | inhibition at 1 ppm [2] [%] | inhibition at 10 ppm [2] [%]
1 | CC1CN(C(=O)c2c(Cl)cccc2[Si](C)(C)C)CC(C)O1 (stereo not shown) [Example 130, N-[2-Chloro-6-(trimethylsilyl)benzoyl]-2,6-dimethylmorpholine] | 1 | 16 | 13 | 39
2 | C[Si](C)(C)c1cccc(Cl)c1C(=O)N1CCOCC1 [Example 132, N-[2-Chloro-6-(trimethylsilyl)benzoyl]-morpholine] | < 0 | 54 | 15 | 46
3 | CN1CCN(C(=O)c2c(Cl)cccc2[Si](C)(C)C)CC1 [Example 133, N-[2-Chloro-6-(trimethylsilyl)benzoyl]-4-methylpiperazine] | < 0 | 13 | 3 | 18
4 | C[Si](C)(C)c1cccc(Cl)c1C(=O)N1CCCCC1 [Example 134, N-[2-Chloro-6-(trimethylsilyl)benzoyl]-piperidine] | < 0 | < 0 | 3 | 39
5 | C[Si](C)(C)c1cccc(Cl)c1C(=O)NCC1CC1 [Example 150, 2-Chloro-N-(cyclopropylmethyl)-6-(trimethylsilyl)benzamide] | 96 | 34 | 74 | 83
6 | CC[C@@H](C)NC(=O)c1c(Cl)cccc1[Si](C)(C)C [Example 151, 2-Chloro-N-(1-methylpropyl)-6-(trimethylsilyl)benzamide, (r)-] | 97 | < 0 | 71 | 57
7 | CC[C@H](C)NC(=O)c1c(Cl)cccc1[Si](C)(C)C [Example 152, 2-Chloro-N-(1-methylpropyl)-6-(trimethylsilyl)benzamide, (s)-] | 54 | < 0 | 71 | 86
8 | C[Si](C)(C)c1cccc(Cl)c1C(=O)NCCBr [Example 153, N-(2-Bromoethyl)-2-chloro-6-(trimethylsilyl)benzamide] | 29 | < 0 | 88 | 91
9 | C[Si](C)(C)c1cccc(Cl)c1C(=O)NCCF [Example 155, 2-Chloro-N-(2-fluoroethyl)-6-(trimethylsilyl)benzamide] | 93 | < 0 | 64 | 90
10 | CCOc1ccccc1NC(=O)c1c(Cl)cccc1[Si](C)(C)C [Example 157, 2-Chloro-N-(2-ethoxyphenyl)-6-(trimethylsilyl)benzamide] | 0 | 7 | 23 | 91
11 | COc1ccccc1NC(=O)c1c(Cl)cccc1[Si](C)(C)C [Example 159, 2-Chloro-N-(2-methoxyphenyl)-6-(trimethylsilyl)benzamide] | 0 | 12 | 55 | 100
12 | C[Si](C)(C)c1cccc(Cl)c1C(=O)Nc1ccccc1[N+](=O)[O-] [Example 160, 2-Chloro-N-(2-nitrophenyl)-6-(trimethylsilyl)benzamide] | 5 | 17 | 63 | 88
13 | C=CCNC(=O)NC(=O)c1c(Cl)cccc1[Si](C)(C)C [Example 165, 2-Chloro-N-[(2-propenylamino)carbonyl]-6-(trimethylsilyl)benzamide] | 63 | < 0 | 76 | 100
